We go through ten molecules from publication PMC7667655, “Targeted Covalent Inhibition of Plasmodium FK506 Binding Protein 35” (ACS Medicinal Chemistry Letters, 2020).

What is called ΔTm is the shift of the melting midpoint relative to a reference. What is called IC50 is the concentration that inhibits the measured activity by half. Usually solubility stands for the dissolved amount per volume that the medium holds. A low value points to a poorly soluble substance.

The target in series [1] is T1, FBD35 (PfFKBP35 binding domain) (Plasmodium falciparum, UniProt Q8I4V8).
T1 construct: FKBP35 Q5 -A128; 6His-SUMO (N, cleaved yes); made in house; host or cells: E. coli BL21 DE3
Briefly: Differential scanning calorimetry, FBD35. The following applies: read-out: FBD35 ΔTM. On the technique in general: Differential scanning calorimetry records heat flow against a reference as temperature is scanned.

Series [2] deals with T2, FKBP12 (Homo sapiens, UniProt P62942).
T2 construct: 6His-SUMO (N, cleaved yes); made in house; host or cells: E. coli (identical protocol to FBD35, BL21 DE3)
Briefly: Fluorescence polarization competition, FKBP12. The class given is binding. On the technique in general: Fluorescence polarisation rises when a labelled molecule tumbles more slowly, as on binding a larger partner.

The target in series [3] is T2, FKBP12. Description: Differential scanning calorimetry, FKBP12. The class given is binding. The following applies: compound 40 µM.
The target in series [4] is T1, FBD35 (PfFKBP35 binding domain). Description: Fluorescence polarization competition, FBD35.
The nature of another series: PBS solubility. The following applies: pH 7.4.
The next series concerns the target T3, nLuc-tagged FKBP12 (Homo sapiens, UniProt P62942).
T3 construct: full length Plasmodium falciparum FKBP35 and human FKBP12 DNA were; expressed in transfected cells
Briefly: NanoBRET cellular target engagement, nLuc-FKBP12. The class given is cell-based. (In general: Bioluminescence resonance energy transfer reports proximity on the nanometre scale.)

A further series deals with T4, FKBP35 (Plasmodium falciparum, UniProt Q8I4V8).
T4 construct: FKBP35 Q5 -A128; 6His-SUMO (N, cleaved yes); made in house; host or cells: E. coli BL21 DE3
Briefly: Time course of covalent modification by LC-MS. Type of series: biochemical. An excerpt:
RT=5.2). B. Overlay of mass determinations from LC traces in (A). FBD35 only (black, m/z = […]
chromatogram corresponding to Figure 4c detecting the CAM -peptide […] at […]
m/z 855.8668. D. Mass spec chromatogram corresponding to Figure 4d detecting the CAM - […]
peptide […] at m/z 855.8670. E. Mass spec chromatogram corresponding to Figure 4e which was unable to detect the mass of the 1c-inclusion peptide. F. Mass spec chromatogram corresponding to Figure 4f detecting the 1c-inclusion peptide […]
Figure S2. Time course of covalent modification. In order to compare rates of covalent modification, compounds 1a-c, 2a, and 2c were incubated with FKBP35 in a 5:1 ratio (2250 nM inhibitor : 450 nM FKBP35) and FKBP35 consumption or modification determined by LC -MS. A.
The concentration of residual FKBP35 as a function of time. Data was fit to an exponential “one phase decay” model which was used to calculate the rate (K) and half -life (t1/2) of the reaction.
The loss of FKBP35 in the DMSO and 1b controls is likely due to adsorption onto the vial. B.
Concentration of covalent adduct as a function of time. Data was fit to an “exponential plateau” regression model, which was used to calculate the rate of formation (K’). Compound 1b, which […]
C. Tabulated rates calculated from the regressions in A and B. The rates of FKBP35 consumption correlate strongly with the rates of […]
(also on this page, place not known: -inclusion 1c 0 20 40 60 0 200 400 600 Time (hours) FKBP35 (nM) Consumption of FKBP35 1a 1b 1c 2a 2c DMSO 0 20 40 60 0 200 400 600 Time (hours) Covalent Adduct (nM) Formation of Covalent Adduct 1a 1b 1c 2a 2c A B) […]
(1 picture or pasted object on this page, not shown here)
Experiments were performed using 0.4 mg/mL concentration of wild -type or mutant protein (6 - 9 uM), with and without synthes ized compounds at 40 µM and 2% DMSO (V/V). The respective reference scans were run under identical DSC conditions and subtracted from each sample scan.
The program was run in a continuous acquisition mode from 25°C to 90°C at a rate of 120C/h The heat capacity curves and midpoint temperature (Tm) were analyzed using Origin 7.0 software.
Fluorescence Polarization
The fluorescent tracer SLFb-2PEG-TAMRA was diluted in DMSO to 100 nM (100x stock concentration). FKBP proteins were diluted in assay buffer (150 mM NaCl, 20 mM HEPES pH 7.5, 0.002% Triton X -100) to the indicated concentration. 100x DMSO tracer stock was added to the protein buffer solution to a 1X final concentration and 20 µL of the mixture was aliquoted into each well of a black 384 -well assay plate (No. 3820, Corning Life Sciences). The plate was briefly centrifuged to remove bubbles. Using a d300e digital dispenser (Tecan), competitive ligands (10 mM stock in DMSO) were aliquoted in triplicate in an 8 -point 3x dilution series (30 µM to 13.7 nM final concentra tion) and normalized to 2% total DMSO concentration. Following incubation at room temperature (RT) for one hour, fluorescence polarization was measured using an EnVision Multimode Plate Reader (PerkinElmer) with the TAMRA Dual -FP mirror and filter kit. […]
analyzed in GraphPad Prism 8 by fitting the data to the “One Site – Fit Ki” model to obtain the […]
Time Course Analysis of Covalent Inhibition
The following analy sis was performed as described on two different days, yielding similar results.
One replicate is shown for clarity. In 1.5 mL snap -top tubes, ligands 1a, 1b, 1c, 2a, and 2c were each diluted to 450 μM in DMSO to produce 200x stock solutions. In a separate 1.5 mL snap-top tube, isolated FKBP35 protein was diluted to 90 μM in the reaction buffer (150 mM NaCl, 20 mM HEPES pH = 7.5) to produce a 200x stock solution. In 2 mL glass mass spec vials, 5 μL of each 200x ligand solution was diluted in 990 μL reaction buffer. Immediately prior to injection of each t=0 time point, 5 μL of the 200x protein solution was added to the mass spec vial and mixed. Samples were analyzed using the Waters BioAccord LC-ToF (composed of an ACQUITY I -Class UPLC and […]

Series [5] has as its target T5, nLuc-tagged full length PfFKBP35 (Plasmodium falciparum, UniProt Q8I4V8).
T5 construct: nanoluciferase-tagged (nLuc) full length PfFKBP35 or nLuc-tagged FKBP12; expressed in transfected cells
Briefly: NanoBRET cellular target engagement, nLuc-FKBP35. Type of series: cell-based.

Where [6] appears, read: read-out: FBD35 IC50, fluorescence polarization, competitive inhibition model, * incomplete displacement of fluorescent probe.
The mark [7] stands for this setting: differential scanning calorimetry, compound 40 µM.
Setting [8] is: fluorescence polarization, competitive inhibition model, read-out: FKBP12 IC50.

In brackets after ≈: the same amount, converted by molar mass. Like-named read-outs stand apart in the source and are kept apart here.

T1 sequence (Q8I4V8 5-128): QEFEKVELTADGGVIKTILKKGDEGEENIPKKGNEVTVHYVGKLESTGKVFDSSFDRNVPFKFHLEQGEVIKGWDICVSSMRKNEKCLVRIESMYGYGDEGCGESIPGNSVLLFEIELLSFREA
T2 sequence (P62942 whole entry): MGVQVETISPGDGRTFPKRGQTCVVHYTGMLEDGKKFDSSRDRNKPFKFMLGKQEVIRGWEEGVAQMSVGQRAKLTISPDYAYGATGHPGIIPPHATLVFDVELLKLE
T4 sequence (Q8I4V8 5-128): as the sequence (Q8I4V8 5-128) above
T5 sequence (Q8I4V8 whole entry): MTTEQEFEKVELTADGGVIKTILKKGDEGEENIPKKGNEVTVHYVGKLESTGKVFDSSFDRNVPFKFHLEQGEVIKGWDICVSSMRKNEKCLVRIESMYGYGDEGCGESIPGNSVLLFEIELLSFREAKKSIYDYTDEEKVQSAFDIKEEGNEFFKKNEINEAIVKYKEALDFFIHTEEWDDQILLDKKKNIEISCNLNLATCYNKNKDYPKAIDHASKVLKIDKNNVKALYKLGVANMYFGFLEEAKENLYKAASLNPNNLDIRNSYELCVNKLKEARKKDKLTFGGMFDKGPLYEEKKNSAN
T3 sequence (P62942 whole entry): as the sequence (P62942 whole entry) above

Turning to `C=CC(=O)Nc1ccc([C@@H](CCc2ccc(OC)c(OC)c2)OC(=O)[C@@H]2CCCCN2C(=O)C(=O)C(C)(C)CC)cc1` [1d], the ΔTm at 40 µM in series [1] worked out at 2.3 °C; on FKBP12 [3] it was 6 °C. The IC50 on FKBP12 [2] is 100 nM; in series [4] it was 85 nM.
As for `C=CC(=O)Nc1cccc([C@@H](CCc2ccc(OC)c(OC)c2)OC(=O)[C@@H]2CCCCN2C(=O)C(=O)c2cc(OC)c(OC)c(OC)c2)c1` [1e], the ΔTm at 40 µM in series [1] turned out to be 1.5 °C; at FKBP12 [3] it was 4.9 °C. Also, the concentration in solution in “PBS solubility” (solubility) came to 3.1 µM (≈ 2.09 µg/mL). Besides, the 50% inhibitory concentration (IC50) is 326 nM on FKBP12 [2] and above 30000 nM in series [4] (setting [6]).
Take `C=CC(=O)Nc1ccccc1[C@@H](CCc1ccc(OC)c(OC)c1)OC(=O)[C@@H]1CCCCN1C(=O)C(=O)c1cc(OC)c(OC)c(OC)c1` [1f]: the thermal shift (ΔTm) at 40 µM in series [1] (setting [7]) was -1.3 °C; at FKBP12 [3], 1.4 °C. In “PBS solubility”, this molecule displayed a solubility of 23 µM (≈ 15.5 µg/mL). The values for the concentration for half-maximal inhibition (IC50) (at FKBP12 [2] (setting [8]); in series [4] (setting [6])) were 3270 nM and above 30000 nM, respectively.
On to `C=CC(=O)NCC(C)(C)C(=O)C(=O)N1CCCC[C@H]1C(=O)O[C@H](CCc1ccc(OC)c(OC)c1)c1ccccc1` [2a], for which the results for the ΔTm at 40 µM (in series [1]; at FKBP12 [3]) were 15.2 °C and 8.8 °C, respectively. Moreover, the IC50 against nLuc-tagged FKBP12 amounted to 501 nM; on FKBP12 [2], 23 nM; in series [5], 1350 nM; in series [4], 104 nM. On FKBP35 (2250 nM inhibitor : 450 nM FKBP35, 23 °C, one phase decay fit), the “K, rate of FKBP35 consumption” value is 0.05916 h⁻¹. The “K’, rate of covalent adduct formation” value at FKBP35 (2250 nM inhibitor : 450 nM FKBP35, exponential plateau fit) worked out at 0.04354 h⁻¹.
As to `CCC(=O)NCC(C)(C)C(=O)C(=O)N1CCCC[C@H]1C(=O)O[C@H](CCc1ccc(OC)c(OC)c1)c1ccccc1` [2b], the thermal shift (ΔTm) at 40 µM in series [1] is 4.3 °C; at FKBP12 [3], 7.7 °C. The IC50 amounted to 416 nM against nLuc-tagged FKBP12, 40 nM on FKBP12 [2], 1880 nM in series [5] and 92 nM in series [4].
Regarding `C=CC(=O)NCCCC(=O)N1CCCC[C@H]1C(=O)O[C@H](CCc1ccc(OC)c(OC)c1)c1ccccc1` [2e], the ΔTm at 40 µM was 13.8 °C in series [1] and 7.9 °C on FKBP12 [3]. The IC50 at FKBP12 [2] is 3250 nM; in series [4] it was 2640 nM.
As to `C=CC(=O)Nc1ccccc1C(=O)C(=O)N1CCCC[C@H]1C(=O)O[C@H](CCc1ccc(OC)c(OC)c1)c1ccccc1` [2f], the shift in melting temperature (ΔTm) at 40 µM turned out to be 0.4 °C in series [1] (setting [7]) and 0.2 °C at FKBP12 [3]. In addition, on FKBP12 [2] (setting [8]), the half-inhibitory concentration (IC50) is above 30000 nM.
For the molecule `C=CC(=O)Nc1cc(OC)ccc1C(=O)C(=O)N1CCCC[C@H]1C(=O)O[C@H](CCc1ccc(OC)c(OC)c1)c1ccccc1` [2g], the ΔTm at 40 µM in series [1] (setting [7]) was 0 °C; at FKBP12 [3] it was 0.1 °C. The IC50 at FKBP12 [2] (setting [8]) is above 30000 nM.
Take `C=CC(=O)OCC(C)(C)C(=O)C(=O)N1CCCC[C@H]1C(=O)O[C@H](CCc1ccc(OC)c(OC)c1)c1cccc(OCC(=O)O)c1` [2h]: the ΔTm at 40 µM in series [1] came out at 16.3 °C; at FKBP12 [3], 6.2 °C. Besides, in the series “PBS solubility”, the concentration in solution (solubility) was 70 µM (≈ 44.8 µg/mL). The concentration for half-maximal inhibition (IC50) at FKBP12 [2] was found to be 38 nM; in series [4], 137 nM.
In the case of `CCC(C)(C)C(=O)C(=O)N1CCCC[C@H]1C(=O)O[C@H](CCc1ccc(OC)c(OC)c1)c1cccc(N)c1` [SLF, reference compound], the ΔTm at 40 µM amounted to 2.9 °C in series [1] and 0.4 °C on FKBP12 [3]. Also, the concentration for half-maximal inhibition (IC50) in series [4] came to 177 nM.
